In the supplement of paper PMC10627819:

Key:
[1] = system: S. aureus DSM 20231; test: Bliss interaction score (quartile over a dose matrix) (fitness difference); higher = more antagonism (negative = synergy)
In short: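 Fitness here means normalised growth, inferred for single drugs from the combination data. Growth was OD595 at entry into stationary phase, divided by the plate's robust no-drug mean and capped at 1. The Bliss score is observed minus expected fitness, with the expectation being the product, and its quartiles span technical, biological and donor/recipient replicates.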

[2] = system: S. aureus DSM 20231; test: fitness (endpoint OD595 vs no drug) (fraction); higher = more growth
In short: (§1)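 Growth medium was TSB, LB Lennox or CY, and plates were kept at 37 °C. Inoculation was at OD595 0.01 in 384-well plates, at 30 µl per well or 55 µl for S. pneumoniae. OD595 was monitored every 30 min for 14 h and background-subtracted using the first reading. Fitness is the optical density on entering stationary phase divided by the robust mean of no-drug controls, with values capped at 1.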

[3] = system: S. aureus Newman; test: as above
In short: as §1

[4] = system: S. pneumoniae D39V; test: as above
In short: as §1

[5] = first compound 0.0156 µg/mL, partner 0.0625 µg/mL
[6] = first compound 0.0156 µg/mL, partner 0.125 µg/mL
[7] = first compound 0.0156 µg/mL, partner 0.25 µg/mL
[8] = first compound 0.0312 µg/mL, partner 0.0625 µg/mL
[9] = first compound 0.0312 µg/mL, partner 0.125 µg/mL
[10] = first compound 0.0312 µg/mL, partner 0.25 µg/mL
[11] = first compound 0.0625 µg/mL, partner 0.0625 µg/mL
[12] = first compound 0.0625 µg/mL, partner 0.125 µg/mL
[13] = first compound 0.0625 µg/mL, partner 0.25 µg/mL
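Wherever Bliss interaction score (quartile over a dose matrix) is given: first quartile when negative (synergy) and third quartile when positive (antagonism).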
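Wherever fitness (endpoint OD595 vs no drug) is given: OD595 on entry to stationary phase over no-drug wells; at most 1.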

C=C1/C(=C\C=C2/CCC[C@]3(C)[C@@H]([C@H](C)CCCC(C)C)CC[C@@H]23)C[C@@H](O)C[C@@H]1O [Alfacalcidol] + O=C1CN(/N=C/c2ccc([N+](=O)[O-])o2)C(=O)N1 [Nitrofurantoin]
Bliss interaction score [1]: 0.185

CC[C@H](C)[C@H](N)C1=N[C@H](C(=O)N[C@@H](CC(C)C)C(=O)N[C@H](CCC(=O)O)C(=O)N[C@H](C(=O)N[C@H]2CCCCNC(=O)[C@H](CC(N)=O)NC(=O)[C@@H](CC(=O)O)NC(=O)[C@H](Cc3cnc[nH]3)NC(=O)[C@@H](Cc3ccccc3)NC(=O)[C@H]([C@@H](C)CC)NC(=O)[C@@H](CCCN)NC2=O)[C@@H](C)CC)CS1 [Bacitracin] + CCCSc1nc(N[C@@H]2C[C@H]2c2ccc(F)c(F)c2)c2nnn([C@@H]3C[C@H](OCCO)[C@@H](O)[C@H]3O)c2n1 [Ticagrelor]
Bliss interaction score ([1]; main component drawn): -0.27

CC[C@H](C)[C@H](N)C1=N[C@H](C(=O)N[C@@H](CC(C)C)C(=O)N[C@H](CCC(=O)O)C(=O)N[C@H](C(=O)N[C@H]2CCCCNC(=O)[C@H](CC(N)=O)NC(=O)[C@@H](CC(=O)O)NC(=O)[C@H](Cc3cnc[nH]3)NC(=O)[C@@H](Cc3ccccc3)NC(=O)[C@H]([C@@H](C)CC)NC(=O)[C@@H](CCCN)NC2=O)[C@@H](C)CC)CS1 [Bacitracin] + C[C@H]1C[C@@H]2[C@H]([C@@H](O)C[C@@]3(C)[C@H]2CC[C@]3(O)C(=O)CO)[C@@]2(C)C=CC(=O)C=C12 [Methylprednisolone]
Bliss interaction score ([1]; main component drawn): -0.282

O=c1[nH]cc(F)c(=O)[nH]1 [Fluorouracil] + CN(C)C(=O)C(CCN1CCC(O)(c2ccc(Cl)cc2)CC1)(c1ccccc1)c1ccccc1 [Loperamide]
Bliss interaction score [1]: 0.195

O=c1[nH]cc(F)c(=O)[nH]1 [Fluorouracil] + CN[C@@H]1[C@H](O[C@H]2[C@H](O[C@H]3[C@H](O)[C@@H](O)[C@H](N=C(N)N)[C@@H](O)[C@@H]3N=C(N)N)O[C@@H](C)[C@]2(O)C=O)O[C@@H](CO)[C@H](O)[C@H]1O [Streptomycin]
Bliss interaction score [1]: -0.184

O=c1[nH]cc(F)c(=O)[nH]1 [Fluorouracil] + O=C1CN(/N=C/c2ccc([N+](=O)[O-])o2)C(=O)N1 [Nitrofurantoin]
Bliss interaction score [1]: -0.206

CC[C@H](c1ccc(O)cc1)[C@@H](CC)c1ccc(O)cc1 [Hexestrol] + CN(C)C(=O)C(CCN1CCC(O)(c2ccc(Cl)cc2)CC1)(c1ccccc1)c1ccccc1 [Loperamide]
Bliss interaction score [1]: -0.456

CC[C@H](c1ccc(O)cc1)[C@@H](CC)c1ccc(O)cc1 [Hexestrol] + CO[C@@]12[C@H](COC(N)=O)C3=C(C(=O)C(C)=C(N)C3=O)N1C[C@@H]1N[C@@H]12 [MitomycinC]
Bliss interaction score [1]: -0.248

CC(C)Cc1ccc(C(C)C(=O)O)cc1 (centres undefined) [Ibuprofen] + C/C(=C\C(=O)OCCCCCCCCC(=O)O)C[C@@H]1OC[C@H](C[C@@H]2O[C@H]2[C@@H](C)[C@H](C)O)[C@@H](O)[C@H]1O [Pseudomonic acid]
Bliss interaction score [1]: 0.169

CC(C)Cc1ccc(C(C)C(=O)O)cc1 (centres undefined) [Ibuprofen] + COc1cc(Cc2cnc(N)nc2N)cc(OC)c1OC [Trimethoprim]
Bliss interaction score [1]: -0.145

CC(=O)NC[C@H]1CN(c2ccc(N3CCOCC3)c(F)c2)C(=O)O1 [Linezolid] + COc1ccc2[nH]c([S+]([O-])Cc3ncc(C)c(OC)c3C)nc2c1 [Omeprazole]
Bliss interaction score [1]: 0.192

CN(Cc1cnc2nc(N)nc(N)c2n1)c1ccc(C(=O)N[C@@H](CCC(=O)O)C(=O)O)cc1 [Methotrexate] + CC1(C)S[C@@H]2[C@H](NC(=O)Cc3ccccc3)C(=O)N2[C@H]1C(=O)O [PenicillinG]
Bliss interaction score [1]: -0.169

CN(Cc1cnc2nc(N)nc(N)c2n1)c1ccc(C(=O)N[C@@H](CCC(=O)O)C(=O)O)cc1 [Methotrexate] + COc1cc(Cc2cnc(N)nc2N)cc(OC)c1OC [Trimethoprim]
Bliss interaction score [1]: -0.242

CO[C@@]12[C@H](COC(N)=O)C3=C(C(=O)C(C)=C(N)C3=O)N1C[C@@H]1N[C@@H]12 [Mitomycin C] + Cn1nnc(-c2ccc(-c3ccc(N4C[C@H](CO)OC4=O)cc3F)cn2)n1 [Tedizolid]
fitness [2, 5]: 0.701
fitness [2, 6]: 0.652
fitness [2, 7]: 0.281
fitness [2, 8]: 0.692
fitness [2, 9]: 0.597
fitness [2, 10]: 0.225
fitness [2, 11]: 0.511
fitness [2, 12]: 0.47
fitness [2, 13]: 0.2
fitness [3, 5]: 0.653
fitness [3, 6]: 0.612
fitness [3, 7]: 0.177
fitness [3, 8]: 0.61
fitness [3, 9]: 0.587
fitness [3, 10]: 0.084
fitness [3, 11]: 0.519
fitness [3, 12]: 0.379
fitness [3, 13]: 0.0559
fitness ([4]; first compound 0.001075 µg/mL, partner 0.125 µg/mL): 0.76
fitness ([4]; first compound 0.001075 µg/mL, partner 0.25 µg/mL): 0.688
fitness ([4]; first compound 0.001075 µg/mL, partner 0.5 µg/mL): 0.313
fitness ([4]; first compound 0.002 µg/mL, partner 0.03125 µg/mL): 0.825
fitness ([4]; first compound 0.002 µg/mL, partner 0.0625 µg/mL): 0.821
fitness ([4]; first compound 0.002 µg/mL, partner 0.125 µg/mL): 0.749
fitness ([4]; first compound 0.00215 µg/mL, partner 0.125 µg/mL): 0.774
fitness ([4]; first compound 0.00215 µg/mL, partner 0.25 µg/mL): 0.687
fitness ([4]; first compound 0.00215 µg/mL, partner 0.5 µg/mL): 0.273
fitness ([4]; first compound 0.004 µg/mL, partner 0.03125 µg/mL): 0.745
fitness ([4]; first compound 0.004 µg/mL, partner 0.0625 µg/mL): 0.725
fitness ([4]; first compound 0.004 µg/mL, partner 0.125 µg/mL): 0.686
fitness ([4]; first compound 0.0043 µg/mL, partner 0.125 µg/mL): 0.687
fitness ([4]; first compound 0.0043 µg/mL, partner 0.25 µg/mL): 0.617
fitness ([4]; first compound 0.0043 µg/mL, partner 0.5 µg/mL): 0.21
fitness ([4]; first compound 0.008 µg/mL, partner 0.03125 µg/mL): 0.635
fitness ([4]; first compound 0.008 µg/mL, partner 0.0625 µg/mL): 0.611
fitness ([4]; first compound 0.008 µg/mL, partner 0.125 µg/mL): 0.518
